Literature values in US10945992B1, “Dosage forms of rofecoxib and related methods” (Tremeau Pharmaceuticals, Inc., priority 2019, dated 2021).

Experiments:
[1] = tested on: patients with HA; details: six weeks of Part 1; P<0.001; cited from earlier work
[2] = cited from earlier work; for incidence of gastrointestinal (GI) ulcers visualized at endoscopy compared to certain non-selective NSAIDs: FDA 2005; for risk of serious adverse cardiovascular events compared to placebo: long-term controlled clinical trial / FDA 2005

Row | Structure (SMILES) | improvement on all endpoints versus placebo [1] | incidence of gastrointestinal (GI) ulcers visualized at endoscopy compared to certain non-selective NSAIDs [2] | risk of serious adverse cardiovascular events compared to placebo [2]
1 | Cc1ccc(-c2ncc(Cl)cc2-c2ccc(S(C)(=O)=O)cc2)cn1 [etoricoxib] | clinically and statistically significant improvement |  | 
2 | Cc1onc(-c2ccccc2)c1-c1ccc(S(N)(=O)=O)cc1 [valdecoxib] |  | reduction | increased risk
3 | Cc1ccc(-c2cc(C(F)(F)F)nn2-c2ccc(S(N)(=O)=O)cc2)cc1 [celecoxib] |  | reduction | increased risk
